Source: ChEMBL document CHEMBL1139621, “Acyclic cyanamide-based inhibitors of cathepsin K” (Bioorg Med Chem Lett, 2005)

How the values were obtained:
[1] = target: T1, Cathepsin K (Homo sapiens, UniProt P43235); experiment: Inhibition constant against human cathepsin K
T1 sequence (P43235 whole entry): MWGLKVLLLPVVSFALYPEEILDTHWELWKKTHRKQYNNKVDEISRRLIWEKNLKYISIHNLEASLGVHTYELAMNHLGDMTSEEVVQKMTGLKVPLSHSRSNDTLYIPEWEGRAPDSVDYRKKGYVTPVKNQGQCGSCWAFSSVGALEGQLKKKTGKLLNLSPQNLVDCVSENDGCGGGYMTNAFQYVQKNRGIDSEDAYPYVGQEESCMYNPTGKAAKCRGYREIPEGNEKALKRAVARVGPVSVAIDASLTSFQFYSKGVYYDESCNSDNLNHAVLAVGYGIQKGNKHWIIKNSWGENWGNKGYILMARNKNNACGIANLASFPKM

[2] = target: Procathepsin L (Homo sapiens, UniProt P07711); experiment: Inhibition constant against human cathepsin L using Cbz-Phe-Arg-AMC
[3] = target: Cathepsin B (Homo sapiens, UniProt P07858); experiment: Inhibition constant against human cathepsin B in fluorescence assay using Cbz-Phe-Arg-AMC
[4] = target: T1, Cathepsin K; experiment: Inhibition constant against human cathepsin K in fluorescence assay using Cbz-Phe-Arg-AMC
[5] = target: T2, Pro-cathepsin H (Homo sapiens, UniProt P09668); experiment: Inhibition constant against human cathepsin H using L-Arg-b-naphthalamide
T2 sequence (P09668 whole entry): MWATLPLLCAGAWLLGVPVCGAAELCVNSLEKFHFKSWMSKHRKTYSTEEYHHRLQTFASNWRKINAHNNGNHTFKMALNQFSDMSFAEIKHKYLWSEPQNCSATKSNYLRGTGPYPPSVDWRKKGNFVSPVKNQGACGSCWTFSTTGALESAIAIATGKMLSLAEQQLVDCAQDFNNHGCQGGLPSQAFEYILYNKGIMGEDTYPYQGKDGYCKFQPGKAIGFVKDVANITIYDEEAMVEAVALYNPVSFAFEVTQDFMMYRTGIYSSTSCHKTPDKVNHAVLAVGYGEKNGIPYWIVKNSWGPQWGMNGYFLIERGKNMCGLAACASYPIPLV

[6] = target: T3, Cathepsin K (Rattus norvegicus, UniProt O35186); experiment: Inhibition constant against rat cathepsin K
T3 sequence (O35186 whole entry): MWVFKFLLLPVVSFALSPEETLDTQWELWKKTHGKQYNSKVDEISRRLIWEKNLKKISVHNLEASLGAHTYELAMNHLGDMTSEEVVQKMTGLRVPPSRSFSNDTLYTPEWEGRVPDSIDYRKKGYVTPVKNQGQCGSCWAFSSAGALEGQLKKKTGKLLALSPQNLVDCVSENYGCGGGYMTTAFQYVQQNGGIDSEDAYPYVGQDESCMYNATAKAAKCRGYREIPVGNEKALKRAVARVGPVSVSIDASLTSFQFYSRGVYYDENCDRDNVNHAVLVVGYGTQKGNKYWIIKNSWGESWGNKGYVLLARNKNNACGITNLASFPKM

Sequence of Procathepsin L (P07711 whole entry): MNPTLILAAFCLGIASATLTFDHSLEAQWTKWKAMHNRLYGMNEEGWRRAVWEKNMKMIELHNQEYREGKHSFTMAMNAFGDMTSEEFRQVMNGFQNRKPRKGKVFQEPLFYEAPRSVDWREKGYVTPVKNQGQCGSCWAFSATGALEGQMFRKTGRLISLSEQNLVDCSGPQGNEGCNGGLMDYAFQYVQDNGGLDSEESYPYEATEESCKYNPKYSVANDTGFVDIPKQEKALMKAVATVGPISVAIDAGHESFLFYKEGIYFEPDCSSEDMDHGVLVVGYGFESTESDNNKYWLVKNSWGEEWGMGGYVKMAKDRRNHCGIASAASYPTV

| SMILES | Ki [4] [nM] | also measured |
| --- | --- | --- |
| C[C@@H](CC1CCCCC1)OC(=O)[C@@H]1CCCN1C#N | – | Ki [1]: 1.8 nM |
| C[C@@H](CC1CCCCC1)OC(=O)[C@H](C)N(C)C#N | 2300 | – |
| C[C@H](C#N)NC(=O)O[C@@H](C)CC1CCCCC1 | > 13000 | – |
| C[C@@H](C#N)NC(=O)O[C@@H](C)CC1CCCCC1 | > 13000 | – |
| C[C@H](C(=O)O[C@@H](C)CC1CCCCC1)N(C)C#N | > 13000 | – |
| C[C@@H](CC1CCCCC1)OC(=O)N(C)N(C)C#N | 62 | – |
| CC(C)(C)OC(=O)[C@@H]1CCCN1C#N | – | Ki [1]: 60 nM |
| C[C@@H](CC1CCCCC1)NC(=O)CN(C)C#N | 830 | – |
| N#CN1CCCC1 [CYANO-PYRROLIDINE] | – | Ki [1]: 2100 nM |

Now from value to molecule, other results behind:

| Ki [4] [nM] | SMILES | also measured |
| --- | --- | --- |
| 26 | C[C@@H](CC1CCCCC1)OC(=O)CN(C)C#N | Ki [2]: 1500 nM; Ki [3]: 2600 nM; Ki [5]: > 13000 nM |
| 0.007 | CCCCN(C#N)NC(=O)O[C@@H](C)CC1CCCCC1 | – |
| 0.009 | C[C@@H](CC1CCCCC1)OC(=O)NN(C)C#N | Ki [2]: 0.025 nM; Ki [3]: 0.077 nM; Ki [5]: 1.4 nM |
| 0.003 | CCN(C#N)NC(=O)O[C@@H](C)CC1CCCCC1 | – |
| 7900 | C[C@@H](CC1CCCCC1)OC(=O)NCC#N | – |
| 0.032 | CC[C@@H](Cc1ccccc1)OC(=O)NN(C)C#N | Ki [2]: 0.036 nM; Ki [6]: 0.072 nM; Ki [3]: 0.25 nM |
| 1500 | C[C@@H](CC1CCCCC1)OC(=O)NN(C#N)C(C)(C)C | – |
| 0.004 | CC(C)CN(C#N)NC(=O)O[C@@H](C)CC1CCCCC1 | – |
| 0.004 | CCCN(C#N)NC(=O)O[C@@H](C)CC1CCCCC1 | – |
| 0.019 | CC(C)N(C#N)NC(=O)O[C@@H](C)CC1CCCCC1 | Ki [2]: 0.79 nM; Ki [3]: 1.3 nM; Ki [5]: 0.46 nM |
| 0.006 | C[C@@H](CC1CCCCC1)OC(=O)NN(C#N)Cc1ccccc1 | – |
